According to PMC4865847, “Putative histidine kinase inhibitors with antibacterial effect against multi-drug resistant clinical isolates identified by in vitro and in silico screens” (Scientific Reports, 2016):
Converted amounts (≈) assume the structure as drawn. Like-named read-outs stand apart in the source and are kept apart here.

Legend:
[1] = target: T1, E. coli PhoR (PhoR^E) (Escherichia coli, UniProt P08400); assay: In vitro autophosphorylation kinase assay with γ-32P-ATP, PhoR^E; type: biochemical; conditions: autophosphorylation, one time point (30 sec), 10% DMSO
T1 construct: The catalytic portion (DHp and CA domain) of E. coli PhoR (PhoR^E); made in house; host or cells: E. coli RIL
T1 sequence (P08400 210-425): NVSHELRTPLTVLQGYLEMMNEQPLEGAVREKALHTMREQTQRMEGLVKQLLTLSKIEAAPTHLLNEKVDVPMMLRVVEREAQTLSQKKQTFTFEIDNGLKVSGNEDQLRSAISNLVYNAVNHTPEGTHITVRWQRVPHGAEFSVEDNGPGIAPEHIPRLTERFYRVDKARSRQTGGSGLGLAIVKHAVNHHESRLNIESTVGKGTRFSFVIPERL
How it was run: (§1)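 Autophosphorylation, initiated with γ-32P-ATP (0.1 μCi/μl; 0.03–0.06 μM ATP final), quenched with SDS/EDTA sample buffer, resolved by SDS-PAGE and quantified by phosphor-imaging. ≈4 μM kinase, fragments up to 20 mM, pH 8.5 Tris buffer with Mg2+; DMSO-matched ligand-free controls.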

[2] = target: T2, S. pneumoniae WalK (Streptococcus pneumoniae, UniProt Q8DPL8); assay: In vitro autophosphorylation kinase assay with γ-32P-ATP, WalK; type: biochemical; conditions: autophosphorylation, one time point (30 sec), 10% DMSO
T2 construct: WalK (amino acids from 208 to 449); N-terminal His6-3C site of vector pOPINF (own knowledge of the vector); made in house; host or cells: E. coli RIL
T2 sequence (Q8DPL8 208-449): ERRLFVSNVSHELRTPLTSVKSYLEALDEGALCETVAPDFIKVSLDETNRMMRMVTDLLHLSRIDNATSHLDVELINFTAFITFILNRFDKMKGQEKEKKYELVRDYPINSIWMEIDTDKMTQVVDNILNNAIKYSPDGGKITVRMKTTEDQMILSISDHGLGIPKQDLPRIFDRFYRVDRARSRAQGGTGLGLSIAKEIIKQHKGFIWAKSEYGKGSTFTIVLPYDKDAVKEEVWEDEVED
How it was run: as §1

[3] = system: Staphylococcus aureus; assay: Antibacterial susceptibility testing (MIC/MBC), S. aureus; type: cell-based; conditions: Staphylococcus aureus; for MBC: DSM20231, strain DSM 20231, read-out: MBC S. aureus DSM 20231
Experimental: (§2) Minimal inhibitory concentrations (MICs) were determined following a standard double-dilution method. […] For S. pneumoniae MICs were determined by adapting the standard double-dilution method to anaerobic conditions and of this microorganism (use of Todd Hewitt Yeast extract with 200 U/mL of catalase and continuous monitoring of growth).

[4] = system: Staphylococcus epidermidis; assay: Antibacterial susceptibility testing (MIC/MBC), S. epidermidis; type: cell-based; conditions: for MBC / MIC: Staphylococcus epidermidis
Experimental: as §2

[5] = system: Escherichia coli; assay: Antibacterial susceptibility testing (MIC/MBC), E. coli; type: cell-based; conditions: Escherichia coli
Experimental: as §2

[6] = system: Streptococcus suis; assay: Antibacterial susceptibility testing (MIC), S. suis; type: cell-based; conditions: for MIC: Streptococcus suis, read-out: MIC Streptococcus suis 3881/S10, strain 3881/S10
Experimental: (§3) Bacterial strains used in this study for antibacterial susceptibility testing (Table S5) were propagated using standard microbiological procedures. Minimal inhibitory concentrations (MICs) were determined following a standard double-dilution method. MICs were recorded as the lowest concentration of the compound where no visible growth was observed. After plating the dilutions around the MIC or growing them in fresh MH media, minimal bactericidal concentration (MBC) was recorded as the lowest concentration of the compound at which no colonies were formed or no growth was observed, respectively. For S. pneumoniae MICs were determined by adapting the standard double-dilution method to anaerobic conditions and of this microorganism (use of Todd Hewitt Yeast extract with 200 U/mL of catalase and continuous monitoring of growth).

[7] = system: Streptococcus pneumoniae; assay: Antibacterial susceptibility testing (MIC), S. pneumoniae; type: cell-based; conditions: strain 49619
Experimental: as §3

[8] = system: Acinetobacter baumannii; assay: Antibacterial susceptibility testing (MIC), A. baumannii; type: cell-based
Experimental: as §3

[9] = system: Stenotrophomonas maltophilia; assay: Antibacterial susceptibility testing (MIC), S. maltophilia; type: cell-based
Experimental: as §3

[10] = system: Klebsiella pneumoniae; assay: Antibacterial susceptibility testing (MIC), K. pneumoniae; type: cell-based; conditions: Klebsiella pneumoniae, ATCC700603, strain ATCC 700603
Experimental: as §3

[11] = system: Pseudomonas aeruginosa; assay: Antibacterial susceptibility testing (MIC), P. aeruginosa; type: cell-based; conditions: Pseudomonas aeruginosa, ATCC27853; strain ATCC 27853
Experimental: as §3

[12] = Hemolysis assay; type: cell-based; conditions: human
Experimental: Hemolytic activity against human erythrocytes taken from a healthy donor was measured as previously described. The hemolysis experiments were carried out in accordance with the guidelines of the United Arab Emirates University (UAEU) Research Ethics Review Board. All experimental protocols were approved by the Research Ethics Review Board of UAEU and informed consent was obtained from all donors.

[13] = ATCC reference strain 25293, read-out: MIC S. aureus 25293
[14] = MRSA clinical isolate 127/08, read-out: MIC S. aureus 127/08
[15] = MRSA clinical isolate 145/08, read-out: MIC S. aureus 145/08
[16] = MRSA clinical isolate 274/08, read-out: MIC S. aureus 274/08
[17] = MRSA, MRSA clinical isolate S908, read-out: MIC S. aureus S908
[18] = MRSA, MRSA clinical isolate T4/6, read-out: MIC S. aureus T4/6
[19] = MRSA, MRSA clinical isolate V4180, read-out: MIC S. aureus V4180
[20] = MRSA, summary over strains, read-out: MICs for the MRSA strains and S. aureus 25293
[21] = strain RP62A (biofilm producer), read-out: MIC S. epidermidis RP62A
[22] = ATCC25276, strain ATCC 25276, read-out: MIC E. coli ATCC 25276
[23] = strain CFT 073, read-out: MIC E. coli CFT 073
[24] = MDR clinical isolate NM8, read-out: MIC A. baumannii NM8
[25] = clinical isolate B32/1, read-out: MIC S. maltophilia B32/1

SMILES: NCCc1ccc2c(c1)[nH]c1ccccc12 [F2.3]
- IC50 ([1]; IC50 PhoR^E): > 2 mM
- IC50 ([2]; IC50 WalK): > 2 mM
- MIC [3, 13]: 125 µg/mL (≈ 594 µM)
- MBC [3]: > 500 µg/mL
- MIC [3, 14]: 250 µg/mL (≈ 1190 µM)
- MIC [3, 15]: 250 µg/mL (≈ 1190 µM)
- MIC [3, 16]: > 500 µg/mL
- MIC [3, 17]: 250 µg/mL (≈ 1190 µM)
- MIC [3, 18]: 250 µg/mL (≈ 1190 µM)
- MIC [3, 19]: 250 µg/mL (≈ 1190 µM)
- MIC [3, 20]: 125 to 500 µg/mL (≈ 594 to 2380 µM)
- MBC ([4]; DSM20044, strain DSM 20044): 63 µg/mL (≈ 300 µM)
- MIC ([4]; DSM20044, strain DSM 20044, read-out: MIC S. epidermidis DSM 20044): 31 to 500 µg/mL (≈ 147 to 2380 µM)
- MIC ([4]; clinical isolate T7/3, read-out: MIC S. epidermidis T7/3): 31 µg/mL (≈ 147 µM)
- MIC ([4]; clinical isolate T37/8, read-out: MIC S. epidermidis T37/8): 125 µg/mL (≈ 594 µM)
- MIC ([4]; clinical isolate T6119, read-out: MIC S. epidermidis T6119): 125 µg/mL (≈ 594 µM)
- MIC [4, 21]: 125 µg/mL (≈ 594 µM)
- MIC ([4]; strain RP62A/1 (non-biofilm producer), read-out: MIC S. epidermidis RP62A/1): 125 µg/mL (≈ 594 µM)
- MIC ([4]; summary over strains, read-out: MICs for the S. epidermidis strains): 31 to 250 µg/mL (≈ 147 to 1190 µM)
- MIC S. epidermidis DSM 20044 ([4]; strain DSM 20044): 31 µg/mL (≈ 147 µM)
- MIC [5, 22]: > 500 µg/mL
- MIC [5, 23]: > 500 µg/mL
- MIC [6]: > 500 µg/mL
- MIC [7]: 4 µg/mL (≈ 19 µM)
- MIC [8, 24]: > 500 µg/mL
- MIC [9, 25]: > 500 µg/mL
- MIC [10]: > 500 µg/mL
- MIC [11]: > 500 µg/mL
- HC50 ([12]; erythrocytes from a healthy donor, up to 500 μg/ml, three independent incubations, read-out: LC50 hemolysis): > 500 µg/mL

SMILES: CC(C)NCC(O)COc1cccc2[nH]c3ccccc3c12 (stereo not shown) [F2.4]
- IC50 ([1]; read-out: IC50 PhoR^E): > 2 mM
- IC50 ([2]; read-out: IC50 WalK): > 2 mM
- MIC [3, 13]: 125 µg/mL (≈ 419 µM)
- MBC [3]: 250 µg/mL (≈ 838 µM)
- MIC [3, 14]: 500 µg/mL (≈ 1680 µM)
- MIC [3, 15]: 250 µg/mL (≈ 838 µM)
- MIC [3, 16]: 500 µg/mL (≈ 1680 µM)
- MIC [3, 17]: 500 µg/mL (≈ 1680 µM)
- MIC [3, 18]: > 500 µg/mL
- MIC [3, 19]: 500 µg/mL (≈ 1680 µM)
- MIC [3, 20]: 125 to 500 µg/mL (≈ 419 to 1680 µM)
- MBC ([4]; DSM20044, strain DSM 20044): 500 µg/mL (≈ 1680 µM)
- MIC [4, 21]: > 500 µg/mL
- MIC [5, 22]: 500 µg/mL (≈ 1680 µM)
- MBC ([5]; strain CFT 073, read-out: MBC E. coli CFT 073): 500 µg/mL (≈ 1680 µM)
- MIC [5, 23]: 500 µg/mL (≈ 1680 µM)
- MIC [6]: 125 µg/mL (≈ 419 µM)
- MIC Streptococcus suis 3881/S10 ([6]; strain 3881/S10): 250 µg/mL (≈ 838 µM)
- MIC [7]: 64 µg/mL (≈ 214 µM)
- MIC [8, 24]: 500 µg/mL (≈ 1680 µM)
- MIC ([8]; MDR clinical isolate NM35, read-out: MIC A. baumannii NM35): > 500 µg/mL
- MIC ([8]; MDR clinical isolate NM75, read-out: MIC A. baumannii NM75): > 500 µg/mL
- MIC ([8]; MDR clinical isolate NM109, read-out: MIC A. baumannii NM109): 500 µg/mL (≈ 1680 µM)
- MIC ([8]; MDR clinical isolate NM124, read-out: MIC A. baumannii NM124): 500 µg/mL (≈ 1680 µM)
- MIC ([8]; summary over strains, read-out: MICs for A. baumannii strains): 500 µg/mL (≈ 1680 µM)
- MIC ([9]; clinical isolate B5/5, read-out: MIC S. maltophilia B5/5): > 500 µg/mL
- MIC ([9]; clinical isolate B6/2, read-out: MIC S. maltophilia B6/2): 500 µg/mL (≈ 1680 µM)
- MIC [9, 25]: 500 µg/mL (≈ 1680 µM)
- MIC ([9]; summary over strains, read-out: MICs for S. maltophilia strains): 500 µg/mL (≈ 1680 µM)
- MIC [10]: > 500 µg/mL
- MIC [11]: > 500 µg/mL
- HC50 [12]: > 500 µg/mL
